In publication PMC11556054, “Development and Synthesis of Bombesin-Based Radiopharmaceutical Precursors Modified with Knottin” (Modern Technologies in Medicine, 2024):

How the values were obtained:
[1] = Radiochemical stability of 177Lu-labeled structures in 0.9% sodium chloride (radio-HPLC); format: physicochemical; settings: for radiochemical purity after 168 h: 168 h in 0.9% sodium chloride at 37°C
Method: Lutetium (^177Lu) chloride was used as a radioligand. […] The radioactivity of samples was measured with a gamma counter ISOMED 2010 (PTW, Germany). Labeling of the peptides was conducted on a Gaia/Luna complex (Elysia-Raytest, Germany). […] The system was controlled by the Clarity programs (Clarity Software, Great Britain). The labeled peptides were purified from free lutetium with the help of single-use cartridges C18 (ABX, Germany), the GAIA complex was used according to the gel-filtration principle.

[2] = Chemical stability in 0.9% sodium chloride (HPLC chromatographic purity); format: physicochemical; settings: target peak area as % of total peak area, M±SD
Method: The analysis of the synthesis and purity control of the commercial PSMA-617 (Huayi Isotopes, China) was performed using chromatographic system Shimadzu LC-20AD XR (Shimadzu, Japan), equipped with spectrophotometric detector SPD-20A, according to the principle of the reverse-phase chromatography with the help of Luna C18 column (Dr. Maisch, Germany) and gradient elution of acetonitrile (Criochrome, Russia) from 95 to 0% and deionized water from 0 to 100% for 40 min. Mass-spectrometric analysis was conducted on the basis of MALDI-TOF mass-spectrometry using MALDI-TOF MS system, series FLEX (Bruker Daltonics, Germany). The peptide was purified by means of a high-performance liquid chromatography system NGC Quest 10 (Bio-Rad, USA) using Bio-Gel P-4 sorbent on the Econo-Column 1×30 cm (Bio-Rad, USA).
Lutetium (^177Lu) chloride was used as a radioligand. […] The radioactivity of samples was measured with a gamma counter ISOMED 2010 (PTW, Germany). Labeling of the peptides was conducted on a Gaia/Luna complex (Elysia-Raytest, Germany). […] The system was controlled by the Clarity programs (Clarity Software, Great Britain). The labeled peptides were purified from free lutetium with the help of single-use cartridges C18 (ABX, Germany), the GAIA complex was used according to the gel-filtration principle. Radiochemical stability was evaluated using the same parameters after 24, 48, 96 and 168 h in 0.9% sodium chloride at 37°C. Chemical stability was similarly fixed in 0.9% sodium chloride as described above. Chromatographic purity was calculated as a percentage of the target substance peak area in relation to the total area of the peaks on the chromatogram taken as 100%.

HCT-116 culture = assay: Binding of 6-FAM-labeled peptides to cell culture, fluorescence microscopy; format: cell-based, human; settings: 1 μmol/L, 3 h incubation, washed with cooled phosphate buffer, ImageJ, >300 cells
Method: (§1) A fluorescent dye 6-FAM in the form of amine (Lumiprob, Russia) was used for bonding analysis. The peptides were labeled according a standard manufacturer protocol: they were dissolved in 0.1 mol/L solution of NaHCO3, 6-FAM dye was then added to the solution and incubated for 30 min at room temperature in the dark. The peptides were purified from the dye excess using alcohol precipitation method. For purification, one part of the labeled peptide solution was mixed with nine parts of the 95% ethanol cooled at –20°C. Further, the peptides were incubated for 90 min at the same temperature (–20°C). After incubation, the cooled solution was centrifuged for 15 min at 13,000 rpm in the Allegra centrifuge (Beckman Coulter, USA). After centrifugation, the supernatant, containing the labeled peptide, was removed and dried using a vacuum concentrator (Eppendorf, Germany).
(§2) The peptides were bound to the cell cultures such as HCT-116, LnCap, PC-3, CHO-K1. The HCT-116 (human colorectal carcinoma cell line) and CHO-K1 (an epithelial cell line derived from the Chinese hamster ovary) were obtained from the Russian collection of cell cultures of vertebrate. The LnCap (PSMA-positive adenocarcinoma of the human prostate gland) and PC-3 cultures (PSMA-negative adenocarcinoma of the human prostate obtained from the bone metastases) were kindly provided by the N.N. Blokhin National Medical Research Center of Oncology (Russia). […]
(§3) 24 h before the experiment, the cultures were seeded in 24-well plates at the concentration of 100,000/well (LnCap — 150,000/well) to achieve the exponential stage. […] After the incubation, the medium with unbonded peptides was removed, the plate wells were washed with a cooled phosphate buffer and the fluorescence signal was recorded using an optical system equipped with a Nikon Ti-S microscope, DS-Qi1MC camera, S Plan Fluor ELWD 20×0.45 objective lenses, 465-495/515-555 nm filter (Nikon, Japan), and a computer with NIS-elements 4.0 software package.
(§4) The quantitative analysis of images was performed with an ImageJ program. The fluorescence signal from more than 300 cells was analyzed for each peptide. The fluorescence intensity was calculated by the following formula: total cell fluorescence = integral density – (area of the selected cell × mean fluorescence of the background indicators) as described by Khokhlova et al.. Shortly it looks like as follows: to obtain a fluorescence signal of each selected cell in the ImageJ program, the integral density parameter is taken, after that, the fluorescence of the background, equal in area to the cell size, is subtracted from this parameter. The fluorescence signal without peptides was registered as a control. The data were presented in the relative units of fluorescence.

LnCap culture = assay: as above; format: cell-based, human; settings: 1 μmol/L, 3 h incubation, washed with cooled phosphate buffer, ImageJ, >300 cells
Method: as §1, §2, §3, §4

PC-3 culture = assay: as above; format: cell-based, human; settings: 1 μmol/L, 3 h incubation, washed with cooled phosphate buffer, ImageJ, >300 cells
Method: as §1, §2, §3, §4

CHO-K1 culture = assay: as above; format: cell-based, Chinese hamster; settings: 1 μmol/L, 3 h incubation, washed with cooled phosphate buffer, ImageJ, >300 cells, negative control culture
Method: as §1, with “After incubation, the cooled solution was centrifuged for 15 min at 13,000 rpm in the Allegra centrifuge (Beckman Coulter, USA). After centrifugation, the supernatant, containing the labeled peptide, was removed and dried using a vacuum concentrator (Eppendorf, Germany).” left out
as §3
The quantitative analysis of images was performed with an ImageJ program. The fluorescence signal from more than 300 cells was analyzed for each peptide. […] The fluorescence signal without peptides was registered as a control. […]

O=C([O-])CN1CCN(CC(=O)[O-])CCN(CC(=O)NCC2CCC(C(=O)N[C@@H](Cc3ccc4ccccc4c3)C(=O)NCCCC[C@H](NC(=O)N[C@@H](CCC(=O)O)C(=O)O)C(=O)O)CC2)CCN(CC(=O)[O-])CC1.[177Lu+3] (some centres unmarked) [Lu-PSMA-617]
radiochemical purity after 24 h ([1]; 24 h in 0.9% sodium chloride at 37°C, radio-HPLC, M±SD): 39.6±4.1%
radiochemical purity after 48 h ([1]; 48 h in 0.9% sodium chloride at 37°C, radio-HPLC, M±SD): 19.7±2.9%
radiochemical purity after 168 h ([1]; radio-HPLC, M±SD): 9.2±0.7%
radiochemical purity, initial ([1]; initial (after labeling and C18 cartridge purification), radio-HPLC with GABI detector, acetonitrile/water (0.01% TFA) gradient, M±SD): 99.7±3.2%

O=C(O)CC[C@H](NC(=O)N[C@@H](CCCCNC(=O)[C@H](Cc1ccc2ccccc2c1)NC(=O)[C@H]1CC[C@H](CNC(=O)CN2CCN(CC(=O)O)CCN(CC(=O)O)CCN(CC(=O)O)CC2)CC1)C(=O)O)C(=O)O [PSMA-617]
radiochemical purity after 168 h ([1]; radio-HPLC, M±SD): 9.2±0.7%
labeling result retained (radiochromatogram, Figure 4) after 168 h ([1]; after 168 h, radiochromatogram): almost completely detached
chemical stability (chromatographic purity) after 24 h ([2]; 24 h in 0.9% sodium chloride, 37°C): 80.6±6.7%
chemical stability (chromatographic purity) after 168 h ([2]; 168 h in 0.9% sodium chloride, 37°C): 42.9±3.4%
chemical stability (chromatographic purity), initial ([2]; initial): 99.1±2.6%
binding to HCT-116 culture (fluorescence signal) (HCT-116 culture): not bound
binding to LnCap culture (fluorescence signal) (LnCap culture): high degree of attachment
binding to LnCap culture (fluorescence signal) (LnCap culture; listed as PSMA- 617): is binding to the LnCap culture
binding to PC-3 culture (fluorescence signal) (PC-3 culture): not bound
binding to CHO-K1 culture (fluorescence signal) (CHO-K1 culture): not bound
